According to ChEMBL document CHEMBL5291721, “A preclinical secondary pharmacology resource illuminates target-adverse drug reaction associations of marketed drugs” (Nat Commun, 2023):

Assays:
[1] = target: T1, Alpha-1A adrenergic receptor (Homo sapiens, UniProt P35348)
T1 sequence (P35348 whole entry): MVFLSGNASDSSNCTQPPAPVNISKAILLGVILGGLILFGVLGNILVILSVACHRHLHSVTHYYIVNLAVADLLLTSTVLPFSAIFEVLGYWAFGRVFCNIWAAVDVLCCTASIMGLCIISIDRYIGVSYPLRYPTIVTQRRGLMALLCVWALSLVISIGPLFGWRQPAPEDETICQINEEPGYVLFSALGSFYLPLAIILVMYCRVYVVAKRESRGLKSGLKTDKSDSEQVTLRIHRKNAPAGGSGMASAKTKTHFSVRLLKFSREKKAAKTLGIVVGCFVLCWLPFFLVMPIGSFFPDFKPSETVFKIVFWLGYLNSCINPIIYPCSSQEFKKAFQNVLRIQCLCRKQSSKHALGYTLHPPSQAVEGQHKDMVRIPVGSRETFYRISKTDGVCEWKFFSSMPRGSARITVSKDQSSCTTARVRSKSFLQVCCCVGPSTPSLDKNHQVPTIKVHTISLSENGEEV

[2] = target: T2, Cholecystokinin receptor type A (Homo sapiens, UniProt P32238)
T2 sequence (P32238 whole entry): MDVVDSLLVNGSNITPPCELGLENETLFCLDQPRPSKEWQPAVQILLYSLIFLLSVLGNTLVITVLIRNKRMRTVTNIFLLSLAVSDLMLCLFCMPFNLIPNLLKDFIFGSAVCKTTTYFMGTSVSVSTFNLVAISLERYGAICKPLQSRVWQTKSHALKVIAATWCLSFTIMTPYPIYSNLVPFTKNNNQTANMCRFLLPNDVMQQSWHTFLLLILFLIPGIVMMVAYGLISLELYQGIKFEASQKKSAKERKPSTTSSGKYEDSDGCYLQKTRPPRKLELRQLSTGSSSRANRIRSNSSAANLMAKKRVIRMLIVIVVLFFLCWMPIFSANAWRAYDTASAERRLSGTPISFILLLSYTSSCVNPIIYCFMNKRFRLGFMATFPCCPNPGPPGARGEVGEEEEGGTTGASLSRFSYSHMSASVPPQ

Vasopressin V1a receptor = Vasopressin V1a receptor (Homo sapiens, UniProt P37288)
Cannabinoid receptor 1 = Cannabinoid receptor 1 (Homo sapiens, UniProt P21554)
Mu-type opioid receptor = Mu-type opioid receptor (Homo sapiens, UniProt P35372)
Melanocortin receptor 4 = Melanocortin receptor 4 (Homo sapiens, UniProt P32245)
[3] = target: T3, Muscarinic acetylcholine receptor M1 (Homo sapiens, UniProt P11229); type: functional
T3 sequence (P11229 whole entry): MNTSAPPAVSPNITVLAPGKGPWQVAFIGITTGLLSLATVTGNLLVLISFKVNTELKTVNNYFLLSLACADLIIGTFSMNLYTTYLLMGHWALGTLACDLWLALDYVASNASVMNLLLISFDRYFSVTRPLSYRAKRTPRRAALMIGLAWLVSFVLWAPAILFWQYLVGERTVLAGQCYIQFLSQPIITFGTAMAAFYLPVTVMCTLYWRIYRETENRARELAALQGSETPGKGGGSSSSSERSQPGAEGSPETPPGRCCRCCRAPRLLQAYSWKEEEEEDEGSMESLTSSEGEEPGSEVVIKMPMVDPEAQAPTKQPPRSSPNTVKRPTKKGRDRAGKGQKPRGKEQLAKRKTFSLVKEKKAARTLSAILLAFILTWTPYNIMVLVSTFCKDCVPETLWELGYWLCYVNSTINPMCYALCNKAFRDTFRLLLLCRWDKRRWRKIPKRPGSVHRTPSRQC

[4] = target: Growth hormone secretagogue receptor type 1 (Homo sapiens, UniProt Q92847)
Progesterone receptor = target: T4, Progesterone receptor (Homo sapiens, UniProt P06401); type: functional
T4 sequence (P06401 whole entry): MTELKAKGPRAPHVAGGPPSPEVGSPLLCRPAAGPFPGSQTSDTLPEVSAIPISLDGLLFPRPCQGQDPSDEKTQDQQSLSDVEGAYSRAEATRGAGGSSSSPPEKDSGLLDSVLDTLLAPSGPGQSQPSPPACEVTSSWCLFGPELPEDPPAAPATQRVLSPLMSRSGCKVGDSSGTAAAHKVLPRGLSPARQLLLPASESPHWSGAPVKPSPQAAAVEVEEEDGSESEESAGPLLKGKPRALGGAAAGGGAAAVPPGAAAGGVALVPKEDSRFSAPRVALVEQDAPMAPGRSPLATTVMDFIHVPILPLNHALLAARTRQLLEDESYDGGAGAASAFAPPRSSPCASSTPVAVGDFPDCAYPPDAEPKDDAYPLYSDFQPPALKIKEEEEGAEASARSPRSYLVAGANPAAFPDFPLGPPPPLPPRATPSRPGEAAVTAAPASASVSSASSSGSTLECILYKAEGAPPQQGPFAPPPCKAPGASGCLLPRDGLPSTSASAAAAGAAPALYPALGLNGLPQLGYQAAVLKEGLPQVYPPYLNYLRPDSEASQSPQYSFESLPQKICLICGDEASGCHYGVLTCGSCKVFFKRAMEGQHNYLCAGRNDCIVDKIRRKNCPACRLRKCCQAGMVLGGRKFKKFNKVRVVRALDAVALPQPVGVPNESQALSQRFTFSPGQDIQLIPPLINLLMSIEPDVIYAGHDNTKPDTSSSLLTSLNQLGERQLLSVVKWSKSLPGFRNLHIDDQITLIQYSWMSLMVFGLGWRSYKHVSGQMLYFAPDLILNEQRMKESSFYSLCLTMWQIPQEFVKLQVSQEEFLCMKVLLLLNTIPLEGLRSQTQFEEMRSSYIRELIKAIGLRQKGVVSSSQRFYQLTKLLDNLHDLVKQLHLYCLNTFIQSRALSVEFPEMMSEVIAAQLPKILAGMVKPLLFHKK

[5] = target: Beta-1 adrenergic receptor (Homo sapiens, UniProt P08588); type: functional
[6] = target: 5-hydroxytryptamine receptor 2B (Homo sapiens, UniProt P41595); type: functional, cell-based
Note: assay procedure not described here.

Melanocortin receptor 4, sequence (P32245 whole entry): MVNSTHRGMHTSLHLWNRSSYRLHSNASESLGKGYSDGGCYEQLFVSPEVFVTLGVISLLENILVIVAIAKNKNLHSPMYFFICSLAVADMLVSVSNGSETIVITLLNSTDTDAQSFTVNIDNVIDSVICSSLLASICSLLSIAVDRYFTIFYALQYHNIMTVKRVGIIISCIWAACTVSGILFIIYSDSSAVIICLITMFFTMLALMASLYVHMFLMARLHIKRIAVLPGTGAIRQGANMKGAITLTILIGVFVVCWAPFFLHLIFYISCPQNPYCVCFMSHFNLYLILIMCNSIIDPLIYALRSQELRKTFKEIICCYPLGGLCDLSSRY
Growth hormone secretagogue receptor type 1, sequence (Q92847 whole entry): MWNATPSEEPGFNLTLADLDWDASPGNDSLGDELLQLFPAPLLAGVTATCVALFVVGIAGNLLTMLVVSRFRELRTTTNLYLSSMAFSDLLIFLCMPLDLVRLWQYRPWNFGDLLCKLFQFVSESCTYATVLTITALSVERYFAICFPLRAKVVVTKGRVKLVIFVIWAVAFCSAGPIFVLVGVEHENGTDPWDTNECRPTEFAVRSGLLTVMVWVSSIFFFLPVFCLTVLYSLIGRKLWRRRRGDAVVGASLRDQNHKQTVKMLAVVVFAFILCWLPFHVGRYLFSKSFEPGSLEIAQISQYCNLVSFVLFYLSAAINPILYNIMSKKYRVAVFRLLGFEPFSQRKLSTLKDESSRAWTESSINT
Cannabinoid receptor 1, sequence (P21554 whole entry): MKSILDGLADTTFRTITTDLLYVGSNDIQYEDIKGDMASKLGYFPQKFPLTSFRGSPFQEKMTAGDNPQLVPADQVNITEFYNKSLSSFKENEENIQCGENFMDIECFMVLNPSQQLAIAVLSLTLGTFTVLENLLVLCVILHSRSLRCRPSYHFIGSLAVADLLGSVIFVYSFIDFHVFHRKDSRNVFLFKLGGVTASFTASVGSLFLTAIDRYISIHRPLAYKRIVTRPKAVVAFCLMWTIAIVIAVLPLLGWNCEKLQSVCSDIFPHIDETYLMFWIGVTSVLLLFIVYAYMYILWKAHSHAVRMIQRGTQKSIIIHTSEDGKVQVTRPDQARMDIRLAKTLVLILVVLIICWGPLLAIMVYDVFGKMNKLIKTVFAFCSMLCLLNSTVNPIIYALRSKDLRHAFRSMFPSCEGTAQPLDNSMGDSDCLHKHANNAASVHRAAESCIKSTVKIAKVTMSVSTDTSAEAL
Mu-type opioid receptor, sequence (P35372 whole entry): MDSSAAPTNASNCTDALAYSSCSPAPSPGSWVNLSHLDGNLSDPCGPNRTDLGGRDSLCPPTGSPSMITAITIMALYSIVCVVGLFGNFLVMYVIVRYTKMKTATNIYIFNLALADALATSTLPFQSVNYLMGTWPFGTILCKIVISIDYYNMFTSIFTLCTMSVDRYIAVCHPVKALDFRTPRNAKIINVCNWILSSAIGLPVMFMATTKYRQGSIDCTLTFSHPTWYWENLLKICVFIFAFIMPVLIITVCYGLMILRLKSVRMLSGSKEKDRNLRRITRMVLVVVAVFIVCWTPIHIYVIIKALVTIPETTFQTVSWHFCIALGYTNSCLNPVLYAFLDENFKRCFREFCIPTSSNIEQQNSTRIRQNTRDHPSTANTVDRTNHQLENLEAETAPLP
Beta-1 adrenergic receptor, sequence (P08588 whole entry): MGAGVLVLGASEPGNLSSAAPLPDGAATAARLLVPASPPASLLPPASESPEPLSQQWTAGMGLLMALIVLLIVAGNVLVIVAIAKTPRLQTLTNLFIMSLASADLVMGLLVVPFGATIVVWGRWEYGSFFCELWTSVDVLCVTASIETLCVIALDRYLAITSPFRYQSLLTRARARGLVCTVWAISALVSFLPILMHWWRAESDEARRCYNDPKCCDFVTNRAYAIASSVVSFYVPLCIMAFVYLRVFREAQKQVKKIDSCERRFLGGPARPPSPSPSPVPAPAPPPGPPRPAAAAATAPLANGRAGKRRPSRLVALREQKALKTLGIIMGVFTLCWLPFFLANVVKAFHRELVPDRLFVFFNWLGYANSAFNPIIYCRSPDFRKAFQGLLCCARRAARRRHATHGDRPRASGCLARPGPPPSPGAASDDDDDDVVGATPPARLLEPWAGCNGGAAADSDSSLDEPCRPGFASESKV
5-hydroxytryptamine receptor 2B, sequence (P41595 whole entry): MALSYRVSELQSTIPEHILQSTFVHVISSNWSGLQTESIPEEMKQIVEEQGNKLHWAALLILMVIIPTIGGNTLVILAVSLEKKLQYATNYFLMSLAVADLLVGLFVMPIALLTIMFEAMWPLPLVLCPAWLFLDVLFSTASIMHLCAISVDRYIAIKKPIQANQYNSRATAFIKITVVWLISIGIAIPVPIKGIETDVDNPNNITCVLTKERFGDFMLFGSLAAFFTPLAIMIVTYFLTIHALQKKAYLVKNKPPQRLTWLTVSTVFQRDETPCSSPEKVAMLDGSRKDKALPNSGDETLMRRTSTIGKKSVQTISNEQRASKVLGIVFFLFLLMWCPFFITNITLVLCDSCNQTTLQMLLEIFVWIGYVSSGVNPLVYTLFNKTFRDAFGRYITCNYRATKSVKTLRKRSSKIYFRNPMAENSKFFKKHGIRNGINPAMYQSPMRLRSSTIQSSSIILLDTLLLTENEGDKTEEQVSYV
Vasopressin V1a receptor, sequence (P37288 whole entry): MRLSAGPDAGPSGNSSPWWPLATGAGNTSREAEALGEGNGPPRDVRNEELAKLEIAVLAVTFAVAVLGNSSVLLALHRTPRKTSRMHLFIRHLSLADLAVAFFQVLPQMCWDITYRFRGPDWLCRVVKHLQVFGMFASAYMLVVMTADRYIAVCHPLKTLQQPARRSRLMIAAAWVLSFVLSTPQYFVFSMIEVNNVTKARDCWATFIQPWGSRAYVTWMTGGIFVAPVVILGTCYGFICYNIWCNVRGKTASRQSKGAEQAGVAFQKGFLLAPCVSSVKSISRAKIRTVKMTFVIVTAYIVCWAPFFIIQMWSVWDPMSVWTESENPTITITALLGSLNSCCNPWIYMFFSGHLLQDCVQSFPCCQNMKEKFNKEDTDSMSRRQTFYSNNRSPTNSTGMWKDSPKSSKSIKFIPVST

Structure (SMILES) | AC50 [1] [µM] | AC50 [2] [µM] | AC50 (Vasopressin V1a receptor) [µM] | AC50 (Cannabinoid receptor 1) [µM] | AC50 (Mu-type opioid receptor) [µM] | AC50 (Melanocortin receptor 4) [µM] | AC50 [3] [µM] | AC50 [4] [µM] | AC50 (Progesterone receptor) [µM] | AC50 [5] [µM] | AC50 [6] [µM]
CN1C(=O)CC(=O)N(c2ccccc2)c2cc(Cl)ccc21 [CLOBAZAM] | > 10 | > 10 | > 10 | > 10 | > 30 | > 10 | > 10 | > 10 | > 10 | > 10 | > 10
COc1c(N2CCNC(C)C2)c(F)cc2c(=O)c(C(=O)O)cn(C3CC3)c12 (centres undefined) [GATIFLOXACIN] | > 30 | > 10 |  | > 10 | > 30 | > 10 |  | > 10 | > 10 | > 10 | > 10
COC(=O)C1=C(C)NC(C)=C(C(=O)OC(C)C)C1c1cccc2nonc12 (centres undefined) [ISRADIPINE] | > 30 | > 30 | > 30 | > 10 | > 30 | > 30 | > 30 | > 30 | > 30 | > 10 | > 10
C#CC1(OC(N)=O)CCCCC1 [ETHINAMATE] | > 10 | > 10 | > 10 | > 10 | > 30 | > 10 | > 10 | > 10 | > 10 | > 10 | > 10
O=C(CCCCC(=O)Nc1c(I)cc(I)c(C(=O)O)c1I)Nc1c(I)cc(I)c(C(=O)O)c1I [IODIPAMIDE] | > 30 | > 10 | > 10 | > 10 | > 30 | > 10 | > 10 | > 10 | > 10 | > 10 | > 10
CC(C)C(=O)OCC(=O)[C@@]12O[C@H](C3CCCCC3)O[C@@H]1C[C@H]1[C@@H]3CCC4=CC(=O)C=C[C@]4(C)[C@H]3[C@@H](O)C[C@@]12C [CICLESONIDE] | > 10 | > 10 | > 10 | 12.1 | > 30 | > 10 | > 10 | > 10 | 7.1 | > 10 | > 10
CN1C(=O)CC(c2ccccc2)C1=O (centres undefined) [PHENSUXIMIDE] | > 10 | > 10 | > 10 | > 10 | > 30 | > 10 | > 10 | > 10 | > 10 | > 10 | > 10
C#CCN(C)[C@H](C)Cc1ccccc1 [SELEGILINE] | 12.7 | > 10 |  | > 10 | > 30 | > 10 |  | > 10 | > 10 | > 10 | > 10
CC(=O)OCC(=O)[C@@]12OC3(CCCC3)O[C@@H]1C[C@H]1[C@@H]3CCC4=CC(=O)C=C[C@]4(C)[C@@]3(F)[C@@H](O)C[C@@]12C [AMCINONIDE] | > 10 | > 10 | > 10 | 4.25 | > 30 | > 10 | > 10 | > 10 | 0.212 | > 10 | > 10
CCC1(C2=CCCCCC2)C(=O)NC(=O)NC1=O [HEPTABARBITAL] | > 10 | > 10 | > 10 | > 10 | > 30 | > 10 | > 10 | > 10 | > 10 | > 10 | > 10
CC(=O)NS(=O)(=O)c1ccc(N)cc1 [SULFACETAMIDE] | > 10 | > 10 | > 10 | > 10 | > 30 | > 10 | > 10 | > 10 | > 10 | > 10 | > 10
CC1=CC(=O)c2ccccc2C1=O [MENADIONE] | > 30 | > 10 | > 10 | > 10 | > 30 | > 10 | > 30 | > 10 | > 30 | > 10 | > 10
COc1ccccc1OCC(O)COC(N)=O (centres undefined) [METHOCARBAMOL] | > 10 | > 10 |  | > 10 | > 30 | > 10 |  | > 10 | > 30 | > 10 | > 10
CN1CCCN=C1COC(=O)C(O)(c1ccccc1)C1CCCCC1 (centres undefined) [OXYPHENCYCLIMINE] | > 10 | > 10 | > 10 | > 10 | > 30 | > 10 | 0.019 | > 10 | > 10 | > 10 | > 10
CC(C)[N+](C)(CCC(C(N)=O)(c1ccccc1)c1ccccc1)C(C)C [ISOPROPAMIDE] | > 10 | > 10 | > 10 | > 10 | > 30 | > 10 | 0.013 | > 10 | > 10 | > 10 | > 10
CCCCOc1cc(C(=O)NCCN(CC)CC)c2ccccc2n1 [DIBUCAINE] | > 10 | > 30 | > 30 | > 10 | > 30 | > 30 | > 10 | 15.8 | > 10 | > 10 | > 10
CN[C@@H]1[C@H](O)[C@H](NC)[C@H]2O[C@@]3(O)C(=O)C[C@@H](C)O[C@H]3O[C@@H]2[C@H]1O [SPECTINOMYCIN] | > 10 | > 10 |  | > 10 | > 30 | > 10 |  | > 10 | > 10 | > 10 | > 30
